Values quoted from earlier work as cited in patent publication US20130225560A1, “Treatment of Cognitive Disorders with Certain Alpha-7 Nicotinic Acid Receptor Agonists in Combination with Acetylcholinesterase Inhibitors” (priority 2010, published 2013).

How the values were obtained:
alpha-7 receptor [1] = molecular target: T1, alpha-7 receptor (Homo sapiens, UniProt P36544)
alpha-7 receptor [2] = molecular target: T1, alpha-7 receptor; remark: listed apart in the source
[3] = tested on: other nicotinic receptors
[4] = tested on: murine model that exhibits aspects of schizophrenia; details: alone and in combination with clozapine; Hauser et al. 2009

T1 sequence (P36544 23-502): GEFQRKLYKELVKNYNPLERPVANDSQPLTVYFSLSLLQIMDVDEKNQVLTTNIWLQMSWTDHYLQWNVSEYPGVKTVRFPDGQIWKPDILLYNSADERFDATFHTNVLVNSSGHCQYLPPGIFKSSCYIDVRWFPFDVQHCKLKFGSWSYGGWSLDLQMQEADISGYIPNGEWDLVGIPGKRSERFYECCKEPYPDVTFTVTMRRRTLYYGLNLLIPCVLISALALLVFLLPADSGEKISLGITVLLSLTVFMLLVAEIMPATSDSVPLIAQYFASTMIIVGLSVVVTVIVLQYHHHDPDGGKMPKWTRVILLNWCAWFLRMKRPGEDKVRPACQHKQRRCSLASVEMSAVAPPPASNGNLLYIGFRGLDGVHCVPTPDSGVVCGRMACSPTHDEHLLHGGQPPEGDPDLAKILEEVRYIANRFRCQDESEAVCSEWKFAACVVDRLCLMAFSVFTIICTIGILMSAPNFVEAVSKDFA

Question: For `O=C(NC1C2CCN(CC2)C1Cc1cccnc1)c1cc2ccccc2o1` (centres unmarked) [TC-5619, N-[2-(pyridin-3-ylmethyl)-1-azabicyclo[2.2.2]oct-3-yl]-1-benzofuran-2-carboxamide], which “affinity for the alpha-7 receptor” value (alpha-7 receptor [1]) is on record?
Answer: very high affinity

Question: What about the “agonist activity at the alpha-7 receptor” value (alpha-7 receptor [2]) of the same compound?
Answer: full agonist

Question: And the “activity at other nicotinic receptors” value [3]?
Answer: little or no activity

Question: What about the “impaired pre-pulse inhibition (PPI), models positive symptoms” value [4] of the same compound?
Answer: correct impaired pre-pulse inhibition (PPI)

Question: And the “impaired social behavior, models negative symptoms” value [4]?
Answer: correct impaired pre-pulse inhibition (PPI) and social behavior
